In assay [1] the target is T1, gp43exo− (bacteriophage T4 DNA polymerase) (Enterobacteria phage T4, UniProt P04415, D219A). The assay can be described thus: biochemical.
In assay [2] the target is T1, gp43exo− (bacteriophage T4 DNA polymerase). It is filed as biochemical.
For assay [3] the target is unchanged. Nature of the assay: biochemical. It is filed as biochemical.
For assay [4] the target is unchanged. The settings on record: cited from earlier work.

The structures appear in SMILES notation. “And” between values parts separate entries of the source, which are not always exact repeats. Equal values may be shown once. Read-outs that look alike come from different tables or passages of the source. A value given as a limit tells only on which side of the number the result lay.

T1 sequence (P04415 whole entry D219A, looked up): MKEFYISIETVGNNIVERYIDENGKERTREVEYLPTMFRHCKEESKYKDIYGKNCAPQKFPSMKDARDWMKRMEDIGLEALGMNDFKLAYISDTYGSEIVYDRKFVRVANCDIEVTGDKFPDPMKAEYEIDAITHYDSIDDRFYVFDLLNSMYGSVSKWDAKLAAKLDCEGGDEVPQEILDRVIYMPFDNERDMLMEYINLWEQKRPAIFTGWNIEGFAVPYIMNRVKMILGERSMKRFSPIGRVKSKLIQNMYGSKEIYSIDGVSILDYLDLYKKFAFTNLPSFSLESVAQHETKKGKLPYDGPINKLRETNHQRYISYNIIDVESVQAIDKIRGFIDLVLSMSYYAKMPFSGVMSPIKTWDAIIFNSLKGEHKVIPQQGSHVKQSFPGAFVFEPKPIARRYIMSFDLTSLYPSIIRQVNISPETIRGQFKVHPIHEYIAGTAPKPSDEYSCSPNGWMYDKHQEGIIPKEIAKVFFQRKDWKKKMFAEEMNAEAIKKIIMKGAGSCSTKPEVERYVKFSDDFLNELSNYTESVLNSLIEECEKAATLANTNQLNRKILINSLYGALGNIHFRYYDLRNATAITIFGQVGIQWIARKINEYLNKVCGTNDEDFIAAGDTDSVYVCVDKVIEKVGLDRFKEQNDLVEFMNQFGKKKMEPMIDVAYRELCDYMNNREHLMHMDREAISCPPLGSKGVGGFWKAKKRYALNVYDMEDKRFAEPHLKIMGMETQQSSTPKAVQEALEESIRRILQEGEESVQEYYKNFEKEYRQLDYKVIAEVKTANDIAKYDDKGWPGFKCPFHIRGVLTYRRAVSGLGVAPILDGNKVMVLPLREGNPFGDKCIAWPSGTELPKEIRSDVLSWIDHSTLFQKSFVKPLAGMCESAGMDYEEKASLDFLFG

A word on the Kd: it is a measure of binding affinity in units of concentration. `Nc1ncnc2c1ccn2[C@H]1C[C@H](O)[C@@H](COP(=O)(O)OP(=O)(O)OP(=O)(O)O)O1` [7-Deaza dATP]: in assay [1], the “catalytic efficiency higher than that for 7-deaza dGTP” value is on record as over 10 fold; the kpol is 1.4 and 1.4 ± 0.1 s^−1; the “kpol higher/faster than that for dATP” value is given as about 10 fold. Further, the Kd in assay [1] (KD) is 200 µM and 197 µM. In addition, in assay [2], the kext is 0.32 ± 0.03 s⁻¹.
With `CNc1nc2c(ncn2[C@H]2C[C@H](O)[C@@H](COP(=O)(O)OP(=O)(O)OP(=O)(O)O)O2)c(=O)[nH]1` [N^2-methyl dGTP], in assay [1], the kpol is 0.12 and 0.12 ± 0.02 s^−1; the “kpol higher/faster than that for dGTP” value is given as about 5 fold. In addition, the Kd in assay [1] (read-out: KD) is 245 µM.
Take `Nc1ncnc2c1[nH]c(=O)n2[C@H]1C[C@H](O)[C@@H](COP(=O)(O)OP(=O)(O)OP(=O)(O)O)O1` [8-Oxo dATP]: the “incorporation opposite an abasic site” value in assay [1] was “no incorporation was observed”.
Regarding `Nc1nc(Cl)c2ncn([C@H]3C[C@H](O)[C@@H](COP(=O)(O)OP(=O)(O)OP(=O)(O)O)O3)c2n1` [6-Cl-2APTP], in assay [1], the kpol was 0.12 and 0.12 ± 0.01 s^−1. In addition, the Kd in assay [1] (read-out: KD) turned out to be 71 ± 20 µM. For the same compound, in assay [2], the “elongated slower compared to dATP, N^7-deaza dATP and N^6-methyl dATP” value was about 10 fold; the kext is 0.033 ± 0.004 s⁻¹.
As to `CNc1ncnc2c1ncn2[C@H]1C[C@H](O)[C@@H](COP(=O)(O)OP(=O)(O)OP(=O)(O)O)O1` [N^6-methyl dATP], in assay [1], the kpol was 5.6+/−0.6 and 5.3 and 5.6 ± 0.6 s^−1; the “kpol higher/faster than that for dATP” value was 40 fold. In assay [1] (KD), the Kd amounted to 190 µM. For the same compound, the kext in assay [2] amounted to 0.71 ± 0.04 s⁻¹.
Regarding `COc1nc(N)nc2c1ncn2[C@H]1C[C@H](O)[C@@H](COP(=O)(O)OP(=O)(O)OP(=O)(O)O)O1` [O^6-methyl dGTP], in assay [1], the kpol is 0.98 and 0.98 ± 0.08 s^−1; the “kpol higher/faster than that for dGTP” value was found to be 40 fold. Further, the Kd in assay [1] (read-out: KD) is 180 µM and 181 µM. Also, in assay [2], the “increase in kext compared with dGTP” value is given as about 20 fold and the kext is 0.092 ± 0.009 s⁻¹.
For the compound `Nc1ccc2[nH]ccc2c1` [5-amino-indole], the “Catalytic efficiency (kpol/KD)” value in assay [3] was found to be 500 M⁻¹ s⁻¹.
For `O=P(O)(O)OP(=O)(O)OP(=O)(O)OC[C@H]1O[C@@H](n2cnc3c(Cl)ncnc32)C[C@@H]1O` [6-Cl-dATP], in assay [1], the kpol was determined as 0.28 ± 0.02 s⁻¹ and the “kpol higher/faster than that for dATP” value turned out to be 2 fold. In assay [1] (read-out: KD), the Kd is 83 ± 16 µM. Besides, the kext in assay [2] amounted to 0.031 ± 0.003 s⁻¹.
As to `Nc1nc2c(ccn2[C@H]2C[C@H](O)[C@@H](COP(=O)(O)OP(=O)(O)OP(=O)(O)O)O2)c(=O)[nH]1` [7-Deaza dGTP], in assay [1], the kpol was 0.11 and 0.11 ± 0.02 s^−1; the “kpol higher/faster than that for dGTP” value is about 5 fold. Besides, the Kd in assay [1] (KD) is 215 µM. In assay [2], the “extension beyond dXMP:abasic site mispair” value is recorded as “lack of extension”.
For the compound `O=c1[nH]cnc2c1ncn2[C@H]1C[C@H](O)[C@@H](COP(=O)(O)OP(=O)(O)OP(=O)(O)O)O1` [dITP], in assay [1], the kpol worked out at 0.044 ± 0.003 s⁻¹ and the “kpol lower than that of dATP” value is recorded as 3.5 fold. In addition, in assay [1] (read-out: KD), the Kd is 103 ± 14 µM. For the same compound, the “extension beyond dXMP:abasic site mispair” value in assay [2] is reported as “lack of extension”.
For the compound `Nc1ncnc2nc[nH]c12` [adenine, reference compound], the “Catalytic efficiency (kpol/KD)” value in assay [4] was 1500 M⁻¹ s⁻¹.
With `Nc1nc(N)c2ncn([C@H]3C[C@H](O)[C@@H](COP(=O)(O)OP(=O)(O)OP(=O)(O)O)O3)c2n1` [2,6-DAPTP], in assay [1], the kpol is 2.4 s⁻¹ and 2.4 ± 0.3 s⁻¹; the “kpol higher/faster than that for dATP” value turned out to be 16 fold. The Kd in assay [1] (read-out: KD) stood at 900 µM. Besides, in assay [2], the kext amounted to 0.016 ± 0.003 s⁻¹.
For the compound `Fc1ccc2[nH]ccc2c1` [5-fluoro-indole], the “Catalytic efficiency (kpol/KD)” value in assay [3] is 2000 M⁻¹ s⁻¹.
Regarding `c1ccc2[nH]ccc2c1` [indole, reference compound], the “Catalytic efficiency (kpol/KD)” value in assay [4] was 1900 M⁻¹ s⁻¹.
For `c1ccc(-c2ccc3[nH]ccc3c2)cc1` [5-phenyl-indole], the “Catalytic efficiency (kpol/KD)” value in assay [3] was 3.8e+06 M⁻¹ s⁻¹.
In the case of `O=[N+]([O-])c1ccc2[nH]ccc2c1` [5-nitro-indole], the “Catalytic efficiency (kpol/KD)” value in assay [4] was 7e+06 M⁻¹ s⁻¹.
